According to paper PMC10778626, “Efficacy of Novel Quaternary Ammonium and Phosphonium Salts Differing in Cation Type and Alkyl Chain Length against Antibiotic-Resistant Staphylococcus aureus” (International Journal of Molecular Sciences, 2023):

Key:
[1] = test system: S. aureus CECT 976; experiment: Quantitative suspension test, dose-response against planktonic bacteria; format: cell-based, Staphylococcus aureus; conditions: 30 min exposure; for concentration inducing reductions in S. aureus log CFU/mL > 5 / MBC: S. aureus CECT 976; for MBC: Staphylococcus aureus, CECT976, 0.5 h, 37 °C, distilled water
Procedure: A quantitative suspension test to explore the dose–response relationships of QHSs by evaluating bactericidal activity was performed. For this method, overnight grown cultures were centrifuged (VWR Mega Star 600R) at 3772× g for 10 min and washed twice with phosphate-buffered saline (PBS; 1.44 g/L of […]—Labkem, Barcelona, Spain; 8 g/L of sodium chloride, 0.2 g/L of potassium chloride, and 0.24 g/L of potassium dihydrogen phosphate—VWR, Leuven, Belgium) at pH 7.4. The collected cells were resuspended in PBS and adjusted to an optical density (OD) of 0.132 ± 0.02 (λ = 600 nm). Afterwards, 100 µL of this cell suspension was aseptically transferred to 800 µL of DW and allowed to stand for 2 min. To this mixture, 100 µL of each QHS solution diluted in DMSO at the desired concentration was added. The dose–response evaluation took place for 30 min at 37 °C. In the case of the negative control (untreated cells), the QHS solution was replaced by an equal volume of DMSO or DW. At the end of the contact time, QHS neutralization was performed through the dilution-neutralization method using a universal neutralizer (1 g/L L-histidine (Merck—Tokyo, Japan), 3 g/L lecithin (Alfa Aesar—Karlsruhe, Germany), 5 g/L sodium thiosulphate (Labkem—Barcelona, Spain), 30 g/L saponin (VWR Chemicals—Leuven, Belgium), and 30 g/L polysorbate 80 (VWR Chemicals—Le Havre, France) in 0.0025 M phosphate buffer). For neutralization, the test blend (100 µL) was added to 800 µL sterile aqueous neutralizing solution and 100 µL of DW. The mixture was gently agitated and allowed to stand for 10 min, after which serial dilutions (up to 10^−5) in sterile saline solution (0.85% w/v NaCl) were prepared. Then, 10 µL of each serial dilution was plated into Petri dishes containing PCA by the drop-plating method. The plates were allowed to set, then inverted and placed in an incubator at 37 °C for 24 h. The surviving cells on the QHS neutralized samples were determined by CFU counting on each plate, ensuring the counting of dilution plates that gave between 10 and 100 CFUs. The antibacterial activity was evaluated by quantification of logarithmic reduction (log CFU/mL), according to Equation (2). log CFU/mL reduction = log (X) − log (X0), (2) where X0 and X are the counts of CFU/mL before (untreated control cells) and after quaternary salt exposure, respectively.
The QHS concentrations chosen for conducting the dose–response tests comprise of the MBC, which causes the complete reduction of planktonic cells, as well as lower concentrations. Specifically, compound 1e was evaluated at concentrations of 0.25, 0.5, 0.75, 1, 2, 4, 8, and 16 µg/mL, compound 7e at concentrations of 1, 2, 3.2, 3.5, 4, 8, and 16 µg/mL, compound 5e at concentrations of 0.5, 1, 1.3, 1.6, 2, 4, and 8 µg/mL, and compound 3e at concentrations of 0.5, 0.75, 1, 1.3, 1.6, 2, 4, and 8 µg/mL. In the case of compounds 2e, 6e, and 4e, concentrations tested were 0.5, 1, 1.6, 2, 4, and 8 µg/mL. All tests were performed in duplicate, and with a minimum of three independent repeats.
The Chick–Watson mathematical model, provided in Equation (3), is considered an adequate approach to validate the kinetics of dose–response data. log X/X0 = − Kdis C^n t (3) where X0 and X are the counts of CFU/mL before and after quaternary salt exposure, respectively; Kdis is a killing rate coefficient ((mL.µg^−1)^n.min^−1); C is the quaternary salt concentration (µg.mL^−1); n is the concentration exponent and t is the exposure time (min). The concentration dependence of killing (n) was determined using a toolbox for linear regression in GraphPad Prism (version 8.4.0, GraphPad Software, La Jolla, CA, USA). The quality of the model was evaluated through the regression coefficient (R^2).

[2] = test system: S. aureus CECT 976; experiment: MIC/MBC by broth microdilution, S. aureus CECT 976; format: cell-based; conditions: Staphylococcus aureus, CECT976, S. aureus CECT 976, broth microdilution; for MIC: 24 h, 37 °C, read-out: MIC; for MBC: plated on PCA, read-out: MBC
Procedure: (§1) The minimum inhibitory concentration (MIC) and minimum bactericidal concentration (MBC) values of all QHSs were determined by the broth microdilution method, according to the approved M7-A7 (aerobes) standards of the Clinical and Laboratory Standards Institute (CLSI) guidelines. Overnight cell cultures of S. aureus, in the exponential phase of growth, were adjusted to an optical density (OD) of 0.132 ± 0.02 (λ = 600 nm). Then, a volume of 180 µL of the cell suspension was added to sterile, flat, clear-bottomed polystyrene (PS) 96-well microtiter plates (VWR—Radnor, PA, USA), already containing 20 µL of each QHS under study at concentrations ranging from 0.0625 to 64 µg/mL. In the end, the volume of each compound never exceeded 10% (v/v) of the well volume. Microtiter plates were then incubated for 24 h at 37 °C under agitation (150 rpm; INCU-Line IL 150R incubator). Absorbance measurements were performed at the beginning (t = 0 h) and end (t = 24 h) of the incubation period using a microtiter plate absorbance reader (BMG LABTECH FLUOstar Omega). Bacterial suspensions with DMSO and without QHSs were used as negative controls. […] All tests were performed with six replicates and a minimum of three independent repeats.
Plates were incubated at 37 °C for 24 h, and growth was visually inspected. […] All tests were performed in triplicate, and with a minimum of three independent repeats.

[3] = test system: S. aureus SA1199B; experiment: MIC/MBC by broth microdilution, S. aureus SA1199B; format: cell-based; conditions: Staphylococcus aureus
Procedure: (§2) S. aureus CECT 976, obtained from the Spanish Type Culture Collection, was used as the standard susceptibility testing control strain. This strain has been previously employed in diverse studies to validate the antimicrobial effects of novel molecules. Additional antibiotic-resistant strains, S. aureus XU212, SA1199B, and RN4220, generously provided by S. Gibbons (University College London, London, UK) were tested. […] The SA1199B strain is characterized by its resistance to fluoroquinolones due to the overexpression of the NorA efflux pump and its ciprofloxacin resistance.
as §1
(§3) Plates were incubated at 37 °C for 24 h, and growth was visually inspected. The MBC was determined as the lowest concentration of compound in which the total inhibition of growth on solid medium was observed (no colony forming units (CFUs) were detected). All tests were performed in triplicate, and with a minimum of three independent repeats.

[4] = test system: S. aureus RN4220; experiment: MIC/MBC by broth microdilution, S. aureus RN4220; format: cell-based; conditions: Staphylococcus aureus
Procedure: as §2, §1, §3

Row | SMILES | concentration inducing reductions in S. aureus log CFU/mL > 5 [1] [μg/mL] | MBC [1] [µg/mL] | MIC [2] [µg/mL] | MBC [2] [µg/mL] | MBC [3] [µg/mL] | MIC [3] [µg/mL] | MBC [4] [µg/mL] | MIC [4] [µg/mL] | maximum log CFU/mL reduction ([1]; at 1.3 μg/mL) [log CFU/mL] | maximum log CFU/mL reduction ([1]; at 4 μg/mL) [log CFU/mL]
1 | CCCCCCCCCCCCCC[P+](c1ccccc1)(c1ccccc1)c1ccccc1 [Compound 1e, Triphenyl(tetradecyl)phosphonium bromide] | 0.7 | 1 | 1 | 16 | 2 | 1 | 2 | 1 |  | 
2 | CCCCCCCCCCCCCC[n+]1ccn(C)c1.[Br-] [Compound 2e, 1-Methyl-3-tetradecyl-1H-imidazol-3-ium bromide] | 2.8 |  | 1 | 8 | 32 | 8 | 8 | 4 |  | 
3 | CCCCCCCCCCCCCC[n+]1ccc2ccccc2c1.[Br-] [Compound 3e, 2-Tetradecylisoquinolin-2-ium bromide] | 1.2 | 1.3 | 2 | 8 | 8 | 2 | 4 | 2 | 6.0 | 
4 | CCCCCCCCCCCCCC[n+]1ccc(C)cc1.[Br-] [Compound 4e, 4-Methyl-1-tetradecylpyridin-1-ium bromide] | 3.5 |  | 2 | 8 | 32 | 8 | 8 | 4 |  | 5.9
5 | CCCCCCCCCCCCCC[n+]1cccc2ccccc21.[Br-] [Compound 5e, 1-Tetradecylquinolin-1-ium bromide] | 1.2 | 1.3 | 2 | 8 | 8 | 4 | 8 | 2 | 6.0 | 
6 | CCCCCCCCCCCCCC[n+]1ccccc1.[Br-] [Compound 6e, 1-Tetradecylpyridin-1-ium bromide] | 3.2 |  | 4 | 8 | 16 | 16 | 8 | 4 |  | 5.9
